The values below come from US11773078B2, “Furin inhibitors” (Glaxosmithkline Intellectual Property Development Limited, priority 2018, dated 2023).

Counter-ions that a name gives are not always drawn.

In assay [1] the target is T1, Furin (108-574-Tev-Flag-His) enzyme (Homo sapiens, UniProt P09958).
T1 construct: Furin (108-574-Tev-Flag-His) enzyme was expressed and purified from CHO cells; TEV cleavage site (C); FLAG (C); His (C); made in house; host or cells: CHO cells
Kind of assay: Furin enzyme assay. It is filed as biochemical. Summed up: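 CHO-expressed, purified furin construct at 40 pM in 100 mM HEPES pH7.5, 1 mM CaCl2, 0.005% Triton X-100. Eleven-point 1:3 series, 0.00017–10 μM final, incubated 2 h at room temperature and read on Envision. pXC50 from four-parameter fit.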

Assay [2] concerns the target T2, furin (endogenous protease) in U20S cells (Homo sapiens, UniProt P09958).
T2 construct: the endogenous protease cleaves GFP; endogenous in cells; host or cells: U2OS cells transduced with a BacMam reporter
As to the kind of experiment: Furin cell-based assay (image-based, Golgi-targeted GFP with BMP10 furin/PCSK cleavage site).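 Note: Read-out is mean GFP fluorescence of Golgi puncta per cell by high-content imaging, retained when furin inhibited, over an eleven-point 0.00017–10 µM series, four-parameter fit.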 To be noted: 24-hour incubation, read-out: furin golgi cell pXC50 (converted).

T1 sequence (P09958 108-574): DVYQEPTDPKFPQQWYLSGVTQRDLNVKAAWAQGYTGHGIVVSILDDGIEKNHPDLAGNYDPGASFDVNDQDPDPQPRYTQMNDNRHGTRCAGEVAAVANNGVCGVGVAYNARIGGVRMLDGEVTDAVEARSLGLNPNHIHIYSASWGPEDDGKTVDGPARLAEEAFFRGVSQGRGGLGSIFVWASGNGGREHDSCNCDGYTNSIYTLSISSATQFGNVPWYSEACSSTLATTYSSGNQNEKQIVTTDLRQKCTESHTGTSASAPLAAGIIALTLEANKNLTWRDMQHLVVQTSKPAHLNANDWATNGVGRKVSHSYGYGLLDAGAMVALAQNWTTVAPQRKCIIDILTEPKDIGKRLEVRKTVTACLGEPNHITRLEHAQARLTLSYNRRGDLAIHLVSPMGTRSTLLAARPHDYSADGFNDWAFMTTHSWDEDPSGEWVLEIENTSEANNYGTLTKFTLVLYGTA
T2 sequence (P09958 108-794): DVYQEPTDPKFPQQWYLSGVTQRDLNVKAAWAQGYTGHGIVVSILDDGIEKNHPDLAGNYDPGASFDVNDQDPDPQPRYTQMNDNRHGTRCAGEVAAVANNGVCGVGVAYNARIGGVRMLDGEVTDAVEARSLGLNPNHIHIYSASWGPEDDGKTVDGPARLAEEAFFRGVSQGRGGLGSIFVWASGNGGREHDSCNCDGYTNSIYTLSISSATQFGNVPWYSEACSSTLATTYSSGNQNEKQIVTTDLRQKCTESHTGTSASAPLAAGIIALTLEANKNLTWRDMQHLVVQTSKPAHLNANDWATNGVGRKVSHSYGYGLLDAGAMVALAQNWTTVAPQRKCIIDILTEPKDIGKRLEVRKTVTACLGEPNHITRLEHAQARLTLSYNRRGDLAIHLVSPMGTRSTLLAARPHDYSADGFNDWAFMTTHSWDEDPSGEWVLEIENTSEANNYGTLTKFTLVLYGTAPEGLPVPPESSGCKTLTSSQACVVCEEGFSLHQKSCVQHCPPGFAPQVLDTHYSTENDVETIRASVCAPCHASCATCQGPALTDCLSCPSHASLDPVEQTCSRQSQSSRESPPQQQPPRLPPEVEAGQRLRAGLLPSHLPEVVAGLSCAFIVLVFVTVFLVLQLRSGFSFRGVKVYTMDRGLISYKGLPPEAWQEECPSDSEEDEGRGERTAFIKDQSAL

`C[C@@H](O)CN1CCN(c2ccc(Oc3cc(CN4CCC(CC(=O)O)CC4)cc(-c4cc(Cl)cc(Cl)c4)n3)cn2)CC1` [Example 299, (R)-2-(1-((2-(3,5-dichlorophenyl)-6-((6-(4-(2-hydroxypropyl)piperazin-1-yl)pyridin-3-yl)oxy)pyridin-4-yl)methyl)piperidin-4-yl)acetic acid]: the “furin enzyme pIC50” value in assay [1] was determined as 8.5. In addition, the EC50 in assay [2] was 31.6 nM.

As for `COC(=O)CCN1CCN(c2ncc(Oc3cc(CN4CCC(CNC(C)=O)CC4)cc(-c4cc(Cl)cc(Cl)c4)n3)cn2)CC1` [Example 297, methyl 3-(4-(5-((4-((4-(acetamidomethyl)piperidin-1-yl)methyl)-6-(3,5-dichlorophenyl)pyridin-2-yl)oxy)pyrimidin-2-yl)piperazin-1-yl)propanoate], the “furin enzyme pIC50” value in assay [1] was found to be 9.4. In addition, the EC50 in assay [2] was 5.01 nM.

For `CN1CCN(c2ncc(Oc3cc(CN4CCC(CCS(N)(=O)=O)CC4)cc(-c4cc(Cl)cc(Cl)c4)n3)cn2)CC1` [Example 87, 2-(1-((2-(3,5-Dichlorophenyl)-6-((2-(4-methylpiperazin-1-yl)pyrimidin-5-yl)oxy)pyridin-4-yl)methyl)piperidin-4-yl)ethanesulfonamide, 4 hydrochloride], in assay [1], the “furin enzyme pIC50” value came out at 9. Besides, in assay [2], the EC50 was 3.98 nM.

In the case of `NC1(CO)CCN(c2ncc(Oc3cc(CN4CCC(CC(=O)O)CC4)cc(-c4cc(Cl)cc(Cl)c4)n3)cn2)CC1` [Example 165, 2-(1-((2-((2-(4-amino-4-(hydroxymethyl)piperidin-1-yl)pyrimidin-5-yl)oxy)-6-(3,5-dichlorophenyl)pyridin-4-yl)methyl)piperidin-4-yl)acetic acid], the “furin enzyme pIC50” value in assay [1] worked out at 8.4. In addition, the EC50 in assay [2] was 31.6 nM.

With `O=C(O)CC1CCN(Cc2cc(Oc3ccc(N4CCNCC4)nc3)nc(-c3cc(Cl)cc(Cl)c3)c2)CC1` [Example 4, 2-(1-((2-(3,5-Dichlorophenyl)-6-((6-(piperazin-1-yl)pyridin-3-yl)oxy)pyridin-4-yl)methyl)piperidin-4-yl)acetic acid, 4 hydrochloride], the “furin enzyme pIC50” value in assay [1] is reported as 8.7. Moreover, the EC50 in assay [2] was 31.6 nM.

On to `CCN1CCCN(c2ncc(Oc3cc(CN4CCC(CC(=O)O)CC4)cc(-c4cc(Cl)cc(Cl)c4)n3)cn2)CC1` [Example 230, 2-(1-((2-(3,5-dichlorophenyl)-6-((2-(4-ethyl-1,4-diazepan-1-yl)pyrimidin-5-yl)oxy)pyridin-4-yl)methyl)piperidin-4-yl)acetic acid], for which the “furin enzyme pIC50” value in assay [1] came out at 8.6. Also, the EC50 in assay [2] was 10 nM.

For the compound `O=C(O)CC1CCN(Cc2cc(Oc3cnc(N4CCCNCC4)nc3)nc(-c3cc(Cl)cc(Cl)c3)c2)CC1` [Example 132, 2-(1-((2-((2-(1,4-diazepan-1-yl)pyrimidin-5-yl)oxy)-6-(3,5-dichlorophenyl)pyridin-4-yl)methyl)piperidin-4-yl)acetic acid], the “furin enzyme pIC50” value in assay [1] is listed as 8.8. In addition, in assay [2], the EC50 is 63.1 nM.

`CN1CCCN(c2ncc(Oc3cc(CN4CC[C@@H]5[C@H](CC4)[C@H]5C(=O)O)cc(-c4cc(Cl)cc(Cl)c4)n3)cn2)CC1` [Example 397, (1R,7S,8r)-4-((2-(3,5-Dichlorophenyl)-6-((2-(4-methyl-1,4-diazepan-1-yl)pyrimidin-5-yl)oxy)pyridin-4-yl)methyl)-4-azabicyclo[5.1.0]octane-8-carboxylic acid, 4 hydrochloride]: in assay [1], the “furin enzyme pIC50” value came to 9. For the same compound, the EC50 in assay [2] was 25.1 nM.

Regarding `CC(CCN1CCN(c2ncc(Oc3cc(CN4CCC(CC(=O)O)CC4)cc(-c4cc(Cl)cc(Cl)c4)n3)cn2)CC1)S(C)(=O)=O` (stereo not shown) [Example 205, 2-(1-((2-(3,5-Dichlorophenyl)-6-((2-(4-(3-(methylsulfonyl)butyl)piperazin-1-yl)pyrimidin-5-yl)oxy)pyridin-4-yl)methyl)piperidin-4-yl)acetic acid], the “furin enzyme pIC50” value in assay [1] is 8.6. For the same compound, the EC50 in assay [2] is 15.8 nM.

On to `CN1CCN(c2ncc(Oc3cc(CN4CCC(OCC(=O)O)C4)cc(-c4cc(Cl)cc(Cl)c4)n3)cn2)CC1` (stereo not shown) [Example 128, 2-((1-((2-(3,5-dichlorophenyl)-6-((2-(4-methylpiperazin-1-yl)pyrimidin-5-yl)oxy)pyridin-4-yl)methyl)pyrrolidin-3-yl)oxy)acetic acid], for which the “furin enzyme pIC50” value in assay [1] was determined as 7.9. Besides, the EC50 in assay [2] is 631 nM.

For `CC(CC1CCN(Cc2cc(Oc3cnc(N4CCN(C)CC4)nc3)nc(-c3cc(Cl)cc(Cl)c3)c2)CC1)C(=O)O` (stereo not shown) [Example 131, 3-(1-((2-(3,5-dichlorophenyl)-6-((2-(4-methylpiperazin-1-yl)pyrimidin-5-yl)oxy)pyridin-4-yl)methyl)piperidin-4-yl)-2-methylpropanoic acid], the “furin enzyme pIC50” value in assay [1] is given as 8.7. Further, in assay [2], the EC50 was 31.6 nM.

Consider `CNC(=O)NCC1CCN(Cc2cc(Oc3ccc(N4CCN(CCCS(C)(=O)=O)CC4)nc3)nc(-c3cc(Cl)cc(Cl)c3)c2)CC1` [Example 255, 1-((1-((2-(3,5-dichlorophenyl)-6-((6-(4-(3-(methylsulfonyl)propyl)piperazin-1-yl)pyridin-3-yl)oxy)pyridin-4-yl)methyl)piperidin-4-yl)methyl)-3-methylurea], for which the “furin enzyme pIC50” value in assay [1] was 9.5. For the same compound, the EC50 in assay [2] was 6.31 nM.

Turning to `CN1CCCN(c2ccc(Oc3cc(CN4CCC(CC(=O)O)CC4)cc(-c4cc(Cl)cc(Cl)c4)n3)cn2)CC1` [Example 156, 2-(1-((2-(3,5-Dichlorophenyl)-6-((6-(4-methyl-1,4-diazepan-1-yl)pyridin-3-yl)oxy)pyridin-4-yl)methyl)piperidin-4-yl)acetic acid], the “furin enzyme pIC50” value in assay [1] stood at 8.8. Besides, the EC50 in assay [2] is 15.8 nM.

As for `CC(=O)NCC1CCN(Cc2cc(Oc3ccc(N4CCN(CCS(N)(=O)=O)CC4)nc3)nc(-c3cc(Cl)cc(Cl)c3)c2)CC1` [Example 289, N-((1-((2-(3,5-dichlorophenyl)-6-((6-(4-(2-sulfamoylethyl)piperazin-1-yl)pyridin-3-yl)oxy)pyridin-4-yl)methyl)piperidin-4-yl)methyl)acetamide], the “furin enzyme pIC50” value in assay [1] came to 8.6. Further, in assay [2], the EC50 was 5.01 nM.

On to `CS(=O)(=O)CCCN1CCN(c2ccc(Oc3cc(CN4CCC(CC(N)=O)CC4)cc(-c4cc(Cl)cc(Cl)c4)n3)cn2)CC1` [Example 264, 2-(1-((2-(3,5-dichlorophenyl)-6-((6-(4-(3-(methylsulfonyl)propyl)piperazin-1-yl)pyridin-3-yl)oxy)pyridin-4-yl)methyl)piperidin-4-yl)acetamide], for which the “furin enzyme pIC50” value in assay [1] is 8.6. In addition, the EC50 in assay [2] is 3.98 nM.

On to `CNC(=O)NCC1CCN(Cc2cc(Oc3cnc(N4CCN(CCCS(C)(=O)=O)CC4)nc3)nc(-c3cc(Cl)cc(Cl)c3)c2)CC1` [Example 257, 1-((1-((2-(3,5-dichlorophenyl)-6-((2-(4-(3-(methylsulfonyl)propyl)piper-1-yl)pyrimidin-5-yl)oxy)pyridin-4-yl)methyl)piperidin-4-yl)methyl)-3-methylurea], for which, in assay [1], the “furin enzyme pIC50” value is 10.1. The EC50 in assay [2] is 5.01 nM.

In the case of `O=C(O)CCC1CCN(Cc2cc(Oc3ccc(N4CCNCC4)nc3)nc(-c3cc(Cl)cc(Cl)c3)c2)CC1` [Example 3, 3-(1-((2-(3,5-Dichlorophenyl)-6-((6-(piperazin-1-yl)pyridin-3-yl)oxy)pyridin-4-yl)methyl)piperidin-4-yl)propanoic acid, 4 hydrochloride], in assay [1], the “furin enzyme pIC50” value is listed as 8.9. Besides, in assay [2], the EC50 is 50.1 nM.

Take `CC(=O)NC(=O)OCC1CCN(Cc2cc(Oc3cnc(N4CCN(C)CC4)nc3)nc(-c3cc(Cl)cc(Cl)c3)c2)CC1` [Example 324]: the “furin enzyme pIC50” value in assay [1] was found to be 8.3. In addition, in assay [2], the EC50 was 15.8 nM.

For the compound `CC(=O)NCC1CCN(Cc2cc(Oc3cnc(N4CCN(C(C)CCC(=O)O)CC4)nc3)nc(-c3cc(Cl)cc(Cl)c3)c2)CC1` (stereo not shown) [Example 215, 4-(4-(5-((4-((4-(acetamidomethyl)piperidin-1-yl)methyl)-6-(3,5-dichlorophenyl)pyridin-2-yl)oxy)pyrimidin-2-yl)piperazin-1-yl)pentanoic acid], in assay [1] (read-out: furin enzyme pIC50 (converted)), the IC50 is 0.398 nM. For the same compound, the EC50 in assay [2] is 10 nM.

`CNC(=O)NCC1CCN(Cc2cc(Oc3ccc(N4CCN(C)CC4)nc3)nc(-c3cc(Cl)cc(Cl)c3)c2)CC1` [Example 69, 1-((1-((2-(3,5-dichlorophenyl)-6-((6-(4-methylpiperazin-1-yl)pyridin-3-yl)oxy)pyridin-4-yl)methyl)piperidin-4-yl)methyl)-3-methylurea]: the “furin enzyme pIC50” value in assay [1] was determined as 9.1. Moreover, the EC50 in assay [2] is 5.01 nM.

For `CN1CCCN(c2ncc(Oc3cc(CN4CCC(OCC(=O)O)CC4)cc(-c4cc(Cl)cc(Cl)c4)n3)cn2)CC1` [Example 140, 2-((1-((2-(3,5-dichlorophenyl)-6-((2-(4-methyl-1,4-diazepan-1-yl)pyrimidin-5-yl)oxy)pyridin-4-yl)methyl)piperidin-4-yl)oxy)acetic acid], the “furin enzyme pIC50” value in assay [1] worked out at 8.8. The EC50 in assay [2] was 7.94 nM.

Turning to `CN1CCN(c2ncc(Oc3cc(CN4CC5CC(CC(=O)O)CC5C4)cc(-c4cc(Cl)cc(Cl)c4)n3)cn2)CC1` (stereo not shown) [Example 129, 2-(2-((2-(3,5-dichlorophenyl)-6-((2-(4-methylpiperazin-1-yl)pyrimidin-5-yl)oxy)pyridin-4-yl)methyl)octahydrocyclopenta[c]pyrrol-5-yl)acetic acid], the “furin enzyme pIC50” value in assay [1] is on record as 8.2. The EC50 in assay [2] is 79.4 nM.

Turning to `CNCc1cc(Oc2ccc(N3C[C@@H]4C[C@H]3CN4)nc2)cc(-c2cc(Cl)cc(Cl)c2)c1` [Example 202, 1-(5-((6-((1S,4S)-2,5-diazabicyclo[2.2.1]heptan-2-yl)pyridin-3-yl)oxy)-3′,5′-dichloro-[1,1′-biphenyl]-3-yl)-N-methylmethanamine], the “furin enzyme pIC50” value in assay [1] is recorded as 8.6. Also, the EC50 in assay [2] was 39.8 nM.
